From PMC6776562, “Inhibition of Rac1-dependent forgetting alleviates memory deficits in animal models of Alzheimer’s disease” (Protein & Cell, 2019)
Entries after “also recorded” stand apart in the source; their conditions may differ.

Experiments:
[1] = system: Rac1 in HEK-293 cells; test: Rac1 activation in cultured cells detected by G-LISA; assay type: cell-based; conditions: 10 μg/mL Aβ42 oligomers in culture medium for 2 h
Method: Synthetic wide-type Aβ42 (purchased from AnaSpec) was initially dissolved in hexafluoroisopropanol (Sigma) to 5 mg/mL for subpackaging. Hexafluoroisopropanol was removed by air drying to obtain an Aβ42 peptide film, which was stored at −80 °C. Then, 24 h before the experiment, the peptide film was first re-suspended in DMSO to a concentration of 12.5 mg/mL and then diluted with Dulbecco’s Modified Eagle Medium (DMEM)/F-12 (phenol red-free; Invitrogen) to a final concentration of 500 μg/mL. The HEK-293 cells were cultured in DMEM containing 10% fetal bovine serum (FBS) at 37 °C with 5% CO2. For oligomer treatment, cells were washed with fresh medium and incubated with 10 μg/mL Aβ42 oligomers for 2 h. Cells were washed twice with PBS before they are collected for Rac1 activity detection by G-LISA (BK128, Cytoskeleton) in accordance with the manufacturer’s protocol.

[2] = In vitro blood-brain barrier permeability assay; assay type: in vitro ADME; conditions: dog, 37 °C, MDR-MDCK
Method: The MDR-MDCK cell line can be used as a fast blood-brain barrier (BBB) model to aid drug discovery (Wang et al., [2005]). In this study, the MDR-MDCK cell line was used to evaluate the permeability coefficients of CS7171 and JKF-034. Briefly, CS7171 and JKF-034 were prepared to final concentrations of 5 μmol/L. The cells were dosed on the basolateral side (B-A) and apical side (A-B) and incubated at 37 °C for 90 min. Each test was performed in duplicate. The apparent permeability coefficient, Papp, was calculated using the following formula: Papp=VA/Area×Time×(drugacceptor,90-min/drugdonor,0-min×Dilution Factor
VA is the volume in the acceptor well, Area is the surface area of the membrane, Time is the total transport time in seconds, [drug]donor, 0-min is the donor drug concentration measured at 0 min; [drug]acceptor, 90-min is the acceptor drug concentration measured at 90 min; dilution factor is the degree of dilution of the donor sample before loading to LC-MS/MS.

[3] = biological target: Rac1 (Mus musculus, UniProt P63001); test: Rac1 activity (Rac1-GTP/total Rac1) in hippocampal tissue by PAK-PBD pull-down and Western blot after drug administration; assay type: in vivo, APP/PS1 mice
Method: We first assayed Rac1 activity in hippocampal tissues from AD patients and healthy age-matched, non-demented controls (Detailed information is provided in Table 1). The levels of the guanosine triphosphate (GTP)-bound active form of Rac1 were measured using the p21-binding domain (PBD) pull-down assay. The GTP-bound active form of Rac1 was pulled down through the interactive p21-activated kinase (PAK) fragment using PAK-PBD beads and measured using a Western blot assay (Fig. 1A), as described in previous studies (Shuai et al., [2010]; Liu et al., [2016]) from our laboratory and studies conducted by other research groups (Sander et al., [1998]; Barnes et al., [2008]). The total amount of Rac1 and actin were also evaluated using the Western blot analyses (See MATERIALS AND METHODS). […] Since there were no significant differences in total Rac1 levels between the experimental and control groups (See representative Western blot in all relevant figures), the ratio of Rac1-GTP to total Rac1 was taken as a measure of Rac1 activity. […] Consistent with this observation, Rac1 activity was also elevated in the hippocampus of APP/PS1 mice at different age (Fig. 1D). […] This increase was more pronounced in older flies (Fig. S1F).
(§1) Mice were treated with EHop-016 (10 mg/kg), CS7170 (50 mg/kg), CS7171 (50 mg/kg), and JKF-034 (40 mg/kg). These drugs were dissolved in saline (0.9% NaCl) containing 0.5% Tween-80 (Sigma P4780). Each mouse received 200 μL of the solution by intragastric administration once per day (administered at 9:00 am). The drug administration was started seven days before the beginning of the Morris water maze (MWM) task and was continued until the end of the assay. All control groups were fed with vehicle solution.
The hippocampal tissues from human subjects and mice were harvested and stored in a liquid nitrogen tank for biochemical assay. The tissues were homogenized in cold lysis buffer (Merck-Millipore, 20-168). The insoluble debris were removed after centrifugation at 13,000 rpm (for 10 min, at 4 °C). For GTP-bound Rac/Cdc42, lysates were incubated with GST-tagged PAK (p21-activated kinase)-PBD agarose beads (Cytoskeleton, PAK02) overnight at 4 °C. On the second day, the beads were washed three times with lysis buffer before subjecting them to SDS-PAGE (15%) and transferring them onto nitrocellulose membranes (Millipore, HATF00010). The membranes were incubated with primary antibodies (for Rac1: BD Transduction Laboratories, #610650, 1:2,000 dilution; for Cdc42, Santa Cruz Biotechnology, lot No. sc-8401, 1:500 dilution) overnight at 4 °C and with HRP-conjugated goat anti-mouse IgG (Cell Signaling Technology, #7076) for 1 h at room temperature. Intensities of the detected bands were analyzed using ImageJ software (National Institutes of Health). The total amount of Rac1 in the lysate was detected using a routine Western blot procedure. RhoA-GTP levels were measured by using the Rho-GTP monoclonal antibody (New East, lot No. 26904, Dilution: 1:1,000). Information regarding the other antibodies used is as follows: anti-RhoA (67B9), Cell Signaling, lot No. #2117, dilution: 1:1,000; anti-Actin, Clone C4, Millipore, lot No. #3018859, dilution: 1:2,000; anti-Amyloid 1-42 6E10, BioLegend, lot No. 803001, dilution: 1:1,000; anti-Phospho-PAK1 (Ser144)/PAK2 (Ser141), Cell Signaling, lot No. #2606, dilution: 1:1,000.

[4] = system: LTP in hippocampal slices of APP/PS1 mice; test: Long-term potentiation (fEPSP recording) in hippocampal slices; assay type: cell-based, mouse; conditions: brain slices of 6-month-old APP/PS1 mice; EHop-016 10 μmol/L in ACSF
Method: Acute 300-μm transverse hippocampal slices were prepared using a vibratome (VTS3000, USA). The slices were maintained at room temperature in a submersion chamber in artificial cerebrospinal fluid (ACSF) containing 125 mmol/L NaCl (Sigma, 71376), 2.5 mmol/L KCl (Sigma, P9541), 2 mmol/L CaCl2 (Sigma, 499609), 1 mmol/L MgCl2 (Sigma, M1028), 1.25 mmol/L NaH2PO4 (Sigma, S3139), 24 mmol/L NaHCO3 (Sigma, S5761) (pH = 7.4), and 15 mmol/L glucose (Sigma, G8270), bubbled with 95% O2 and 5% CO2. Slices were incubated for at least 1 h before removal for experiments. Slices were kept in the MED probe for 1 h for attachment to the 16-channel array (MED-PG515A, Alpha MED Sciences; preheated to 33 °C). Extracellular field excitatory post-synaptic potentials (fEPSPs) in the Schaffer collateral pathway were evoked at 0.025 Hz and recorded in the CA1. The fEPSPs were evoked using a stimulation intensity that elicited a 30% maximal response. Data acquisition and analysis were performed using the multi-electrode MED64 hardware and software package (Panasonic). Additional analyses were performed using custom macros running under Igor Pro. The LTP was induced by one train of theta burst stimulation (TBS) consisting of one epoch of 10 trains of five bursts repeated at 5 Hz and delivered at the same intensity as in the baseline recordings. […]

[5] = system: APP/PS1 mice; test: Morris water maze (MWM) spatial learning in AD mice; assay type: in vivo, mouse
Method: as §1
The MWM test, a classic paradigm used to study spatial reference memory, was performed (Vorhees and Williams, [2006]). Briefly, a circular polypropylene water tank (120 cm in diameter) was filled with opaque water and milk (20 °C ± 1 °C) and a transparent platform (15 cm diameter) was submerged (2 cm below the water surface) in the center of one of the four virtually divided quadrants. Distal cues were fixed on the wall of the tank as spatial references. For the classic training paradigm (Figs. 2 and 6), mice were allowed to find the platform within 60 s and to remain on it for at least 5 s. For the modified training paradigm (Fig. 3A), mice were trained over 5 consecutive sessions with a 1-h intervals within one day. After training, mice were returned to their home cages and the memory of the location of the platform was tested at 6 h after training (Fig. 3C–D). A mouse behavior tracking software (ANY-maze software) was used to record data automatically.

[6] = biological target: Rac1 (Drosophila melanogaster, UniProt P40792); test: Rac1 activity in fly whole brain lysate by Western blot; assay type: in vivo; conditions: AD flies; EHop-016 100 μmol/L
Method: (§2) Flies were treated with EHop-016 (Yong-Can Biotech). The EHop-016 was dissolved in dimethyl sulfoxide (DMSO; Sigma, D8418-100ML) to make a 10-mmol/L stock solution. This solution was stored at −20 °C for later use. Before administration, 4% (m/v) sucrose solution was used to dilute the stock solution to a concentration of 100 µmol/L (working solution). After the flies were starved for 3 h in empty vials, they were fed with the working solution for 5 h. Feeding was carried out once per day until testing.
The hippocampal tissues from human subjects and mice were harvested and stored in a liquid nitrogen tank for biochemical assay. The tissues were homogenized in cold lysis buffer (Merck-Millipore, 20-168). The insoluble debris were removed after centrifugation at 13,000 rpm (for 10 min, at 4 °C). For GTP-bound Rac/Cdc42, lysates were incubated with GST-tagged PAK (p21-activated kinase)-PBD agarose beads (Cytoskeleton, PAK02) overnight at 4 °C. […] Intensities of the detected bands were analyzed using ImageJ software (National Institutes of Health). The total amount of Rac1 in the lysate was detected using a routine Western blot procedure. RhoA-GTP levels were measured by using the Rho-GTP monoclonal antibody (New East, lot No. 26904, Dilution: 1:1,000). […]

[7] = system: Aβ42 transgenic flies (elav/Y; UAS-Aβ42/+); test: Pavlovian olfactory aversive conditioning in AD flies; assay type: in vivo, Drosophila; conditions: AD flies fed 100 μmol/L EHop-016 for 7 days
Method: as §2
To assess learning and memory, flies underwent classic olfactory aversive conditioning. One- to two-day-old flies were collected and fed with EHop-016 (100 µmol/L) for 7 days. Training and testing were performed at 24 °C with 60% relative humidity. During training, about 100 flies were exposed to an electric shock (unconditioned stimulus [US]) paired with either 3-octanol (>95% purity; Fluka, Sigma-Aldrich) or 4-methylcyclohexanol (>99% purity; Fluka, Sigma-Aldrich) as the conditioned stimulus (CS). Performance was tested using a T-maze apparatus within which 3-octanol and 4-methylcyclohexanol were delivered from opposite arms simultaneously. […] The learning score was calculated as the difference between the number of flies in each arm divided by the sum of flies in both arms immediately after training. Performance index was calculated as the average of two reciprocal tests to avoid odor bias. […]

[8] = In vitro metabolic stability in mouse liver microsomes; assay type: in vitro ADME
Method: (§3) Measurements of metabolic stability can be performed with liver microsomes, which are known to contain the major drug-metabolizing enzymes and UDP-glucuronosyltransferase (Baranczewski et al., [2006]). The in vitro metabolic stability levels of CS7171 and JKF-034 were measured using human, monkey, and mouse liver microsomes. The metabolic half-time (T1/2) and intrinsic clearance (Clint) were assayed using LC-MS analysis. Ketanserin is a potent, orally effective antagonist of endogenous serotonin. Its pharmacological profile is well studied (Brogden and Sorkin, [1990]). In this study, we used ketanserin as a control. If the T1/2 of the tested compound was 30–120 min, the compound was considered to show moderate metabolism in liver microsomes. If the T1/2 value was less than 30 min, the compound was considered to be susceptible to metabolism in liver microsomes.

[9] = In vitro metabolic stability in monkey liver microsomes; assay type: in vitro ADME
Method: as §3

[10] = In vitro metabolic stability in human liver microsomes; assay type: in vitro ADME
Method: as §3

[11] = APP/PS1 mice (eight-month-old), oral CS7171 50 mg/kg, CS7170 50 mg/kg, JKF-034 40 mg/kg once per day

Amyloid-beta 42 [Aβ42]
Rac1 activity in HEK-293 cells [1]: capable of stimulating Rac1 activity

COCCc1ccc(OCC(O)CNC(C)C)cc1 (stereo not drawn) [Metoprolol, reference compound]
Papp A→B at 90 min, 5 μmol/L ([2]; MDCK-MDR1, A-B): 40.5 ×10⁻⁶ cm/s
Papp B→A at 90 min, 5 μmol/L ([2]; MDCK-MDR1, B-A): 28.6 ×10⁻⁶ cm/s

CCn1c2ccccc2c2cc(Nc3ccnc(NCCCN4CCOCC4)n3)ccc21 [EHop-016]
total Rac1 expression in hippocampal tissues ([3]; 9-month-old AD mice, EHop-016 10 mg/kg): without changing total Rac1 expression
Rac1 activity (Rac1-GTP/Total Rac1) in hippocampal tissues ([3]; 9-month-old AD mice, EHop-016 10 mg/kg, intragastric once per day, 10 days, 10 mg/kg): significantly inhibited Rac1 activity; also recorded: inhibition of Rac1 activity
LTP maintenance (fast decay after TBS) [4]: The fast decay was rescued; also recorded: attenuated
MWM escape latency / learning deficit ([5]; 9-month-old APP/PS1 mice, EHop-016 10 mg/kg, versus vehicle-treated AD mice, 10 mg/kg): took less time to locate the hidden platform; also recorded: did not significantly differ from that of WT mice; also recorded: mitigated the learning deficit
Rac1 activity in whole brain lysis [6]: reduced Rac1 activity; also recorded: inhibition of Rac1 activity
total Rac1 expression [6]: without changing the total Rac1 expression
learning defect in aversive olfactory conditioning [7]: significantly rescued the learning defects; also recorded: rescued the learning defect

O=C(c1ccc(F)cc1)C1CCN(CCn2c(=O)[nH]c3ccccc3c2=O)CC1 [Ketanserin, reference compound]
CLint scaled [8]: 312 mL/min/kg
half-life [8]: 17.5 min
CLint scaled [9]: 111 mL/min/kg
half-life [9]: 18.3 min
CLint scaled [10]: 39.5 mL/min/kg
half-life [10]: 44.1 min

COc1cc(C=C2C(=O)NN(c3ccc(Cl)c(Cl)c3)C2=O)ccc1O [CS7170]
hippocampal Rac1 activity (Rac1-GTP/total Rac1) [3, 11]: not and unable to inhibit Rac1 activity
MWM learning deficit / spatial memory [5, 11]: not
